The source of these data is patent US20090029983A1, “NOVEL HETEROCYCLIC COMPOUNDS HAVING ANTI-HBV ACTIVITY” (priority 2005, published 2009).

pEC50: −log10 of the molar value.

The subject of the experiment is HBV. In words: HBV screening assay (viral DNA in baculovirus-HBV transduced HepG2 cells). The format is cell-based. To be noted: Hepatitis B virus, HepG2, 72 h, read-out: EC50 (antiviral activity), HBV-transduced HepG2 cells, three days with compound, viral DNA by ELISA. How it is done: HepG2 cells were transduced using a baculovirus to deliver the HBV genome essentially as previously described (Delaney et al. in Hepatology 1998; 28: 1134-1146). Transduced cells were cultured in supplemented EMEM media with 10% fetal bovine serum in a 5% CO2 incubator at 37° C. for three days in the presence of test compounds. The cells were lysed in a buffer containing 0.5% NP-40 and […] proteinase K. A solid-phase hybridization was performed to capture the viral DNA and to label the target DNA with Digoxigenin-labeled DNA probes. The viral DNA was detected by ELISA, using horseradish peroxidase-conjugated anti-digoxigenin antibodies.
The EC50 values were determined using ExcelFit software from the inhibition values of a titration curve for each compound. For CC50 determinations, the same titration of compounds was co-cultured with non-transduced HepG2 for three days under the conditions described above. The Promega CellTiter 96 Aqueous One Solution Cell Proliferation Assay was used to measure cell proliferation/viability. The CC50 values were determined using ExcelFit software from the inhibition values of the titration curve for each compound.
As for `CC(C)CN1Cc2nc3sc(C(N)=O)c(N)c3c(-c3cccs3)c2C1` [Compound 14, 3-Amino-6-isobutyl-4-thiophen-2-yl-6,7-dihydro-5H-1-thia-6,8-diaza-s-indacene-2-carboxylic acid amide], the pEC50 was less than 5.00. In the case of `NC(=O)c1sc2nc3c(c(-c4cccs4)c2c1N)CN(CCO)C3` [Compound 15, 3-Amino-6-(2-hydroxy-ethyl)-4-thiophen-2-yl-6,7-dihydro-5H-1-thia-6,8-diaza-s-indacene-2-carboxylic acid amide], the negative logarithm of the EC50 (pEC50) is 5.00 to 6.00. In the case of `CCCCCN1Cc2nc3sc(C(N)=O)c(N)c3c(-c3cccs3)c2C1` [Compound 16, 3-Amino-6-pentyl-4-thiophen-2-yl-6,7-dihydro-5H-1-thia-6,8-diaza-s-indacene-2-carboxylic acid amide], the pEC50 was less than 5.00. As for `COCCN1Cc2nc3sc(C(N)=O)c(N)c3c(-c3cccs3)c2C1` [Compound 17, 3-Amino-6-(2-methoxy-ethyl)-4-thiophen-2-yl-6,7-dihydro-5H-1-thia-6,8-diaza-s-indacene-2-carboxylic acid amide], the figure is less than 5.00. `CCOC(=O)CN1Cc2nc3sc(C(N)=O)c(N)c3c(-c3cccs3)c2C1` [Compound 18, 3-Amino-6-carbethoxymethyl-4-thiophen-2-yl-6,7-dihydro-5H-1-thia-6,8-diaza-s-indacene-2-carboxylic acid amide]: the pEC50 is less than 5.00. `NC(=O)c1sc2nc3c(c(-c4cccs4)c2c1N)CN(CCN1C(=O)c2ccccc2C1=O)C3` [Compound 19, 3-Amino-6-[2-(1,3-dioxo-1,3-dihydro-isoindol-2-yl)-ethyl]-4-thiophen-2-yl-6,7-dihydro-5H-1-thia-6,8-diaza-s-indacene-2-carboxylic acid amide]: the pEC50 was less than 5.00.

As for `NC(=O)c1sc2nc3c(c(-c4cccs4)c2c1N)CN(Cc1cccnc1)C3` [Compound 20, 3-Amino-6-pyridin-3-ylmethyl-4-thiophen-2-yl-6,7-dihydro-5H-1-thia-6,8-diaza-s-indacene-2-carboxylic acid amide], the negative-log EC50 (pEC50) was more than 6.00. Take `NC(=O)c1sc2nc3c(c(-c4cccs4)c2c1N)CN(Cc1ccccc1)C3` [Compound 21, 3-Amino-6-benzyl-4-thiophen-2-yl-6,7-dihydro-5H-1-thia-6,8-diaza-s-indacene-2-carboxylic acid amide]: the negative logarithm of the EC50 (pEC50) is 5.00 to 6.00. The figure for `Cc1ccccc1CN1Cc2nc3sc(C(N)=O)c(N)c3c(-c3cccs3)c2C1` [Compound 22, 3-Amino-6-(2-methyl-benzyl)-4-thiophen-2-yl-6,7-dihydro-5H-1-thia-6,8-diaza-s-indacene-2-carboxylic acid amide] is 5.00 to 6.00; for `NC(=O)c1sc2nc3c(c(-c4cccs4)c2c1N)CN(Cc1cccc(F)c1)C3` [Compound 23, 3-Amino-6-(3-fluoro-benzyl)-4-thipohen-2-yl-6,7-dihydro-5H-1-thia-6,8-diaza-s-indacene-2-carboxylic acid amide] it is less than 5.00.

For `COc1cc(CN2Cc3nc4sc(C(N)=O)c(N)c4c(-c4cccs4)c3C2)cc(OC)c1` [Compound 24, 3-Amino-6-(3,5-dimethoxy-benzyl)-4-thiophen-2-yl-6,7-dihydro-5H-1-thia-6,8-diaza-s-indacene-2-carboxylic acid amide], the pEC50 is less than 5.00. As for `NC(=O)c1sc2nc3c(c(-c4cccs4)c2c1N)CN(CCCN1CCN(c2ncccn2)CC1)C3` [Compound 25, 3-Amino-6-[3-(4-pyrimidin-2-yl-piperazin-1-yl)-propyl]-4-thiophen-2-yl-6,7-dihydro-5H-1-thia-6,8-diaza-s-indacene-2-carboxylicacid amide], the figure is less than 5.00; as for `COC1CCCCN1CCCN1Cc2nc3sc(C(N)=O)c(N)c3c(-c3cccs3)c2C1` (stereo not drawn) [Compound 26, 3-Amino-6-[3-(2-methoxy-piperidin-1-yl)-propyl]-4-thiophen-2-yl-6,7-dihydro-5H-1-thia-6,8-diaza-s-indacene-2-carboxylic acidamide], less than 5.00. As for `NC(=O)c1sc2nc3c(c(-c4cccs4)c2c1N)CN(CCCN1CCOCC1)C3` [Compound 27, 3-Amino-6-(3-morpholin-4-yl-propyl)-4-thiophen-2-yl-6,7-dihydro-5H-1-thia-6,8-diaza-s-indacene-2-carboxylic acid amide], the pEC50 was less than 5.00. Take `CC(O)CNCCCN1Cc2nc3sc(C(N)=O)c(N)c3c(-c3cccs3)c2C1` (stereo not drawn) [Compound 28, 3-Amino-6-[3-(2-hydroxy-propylamino)-propyl]-4-thiophen-2-yl-6,7-dihydro-5H-1-thia-6,8-diaza-s-indacene-2-carboxylic acidamide]: the negative logarithm of the EC50 (pEC50) is less than 5.00. The figure for `NC(=O)c1sc2nc3c(c(-c4cccs4)c2c1N)CCNC3` [Compound 29, 3-Amino-4-thiophen-2-yl-5,6,7,8-tetrahydro-1-thia-7,9-diaza-cyclopenta[b]naphthalene-2-carboxylic acidamide] is more than 6.00; for `CC(C)(C)OC(=O)N1CCc2c(nc3sc(C(N)=O)c(N)c3c2-c2cccs2)C1` [Compound 30, 3-Amino-7-tert-butyloxycarbonyl-4-thiophen-2-yl-5,6,7,8-tetrahydro-1-thia-7,9-diaza-cyclopenta[b]naphthalene-2-carboxylic acid amide] it is less than 5.00; for `CC(C)(C)OC(=O)N1CCc2nc3sc(C(N)=O)c(N)c3c(-c3cccs3)c2C1` [Compound 32, 3-Amino-6-tert-butyloxycarbonyl-4-thiophen-2-yl-5,6,7,8-tetrahydro-thieno[2,3-b][1,6]naphthyridine-2-carboxylic acidamide] it is less than 5.00. As for `Cc1ccc(-c2c3c(nc4sc(C(N)=O)c(N)c24)CCN(Cc2ccccc2)C3)o1` [Compound 33, 3-Amino-6-benzyl-4-(5-methyl-furan-2-yl)-5,6,7,8-tetrahydro-thieno[2,3-b][1,6]naphthyridine-2-carboxylic acidamide], the figure is less than 5.00; as for `CC(=O)N1CCc2nc3sc(C(N)=O)c(N)c3c(-c3cccs3)c2C1` [Compound 34, 6-Acetyl-3-amino-4-thiophen-2-yl-5,6,7,8-tetrahydro-thieno[2,3-b][1,6]naphthyridine-2-carboxylic acid amide], less than 5.00; as for `CCOC1CCc2c1nc1sc(C(N)=O)c(N)c1c2-c1cccs1` (stereo not drawn) [Compound 35, 3-Amino-7-ethoxy-4-thiophen-2-yl-6,7-dihydro-5H-cyclopenta[b]thieno[3,2-e]pyridine-2-carboxylic acid amide], more than 6.00. As for `NC(=O)c1sc2nc3c(c(-c4cccs4)c2c1N)CCC3CC(=O)O` (stereo not drawn) [Compound 36, 3-Amino-7-carboxymethyl-4-thiophen-2-yl-6,7-dihydro-5H-cyclopenta[b]thieno[3,2-e]pyridine-2-carboxylic acid amide], the figure is less than 5.00; as for `CC1CCc2c1nc1sc(C(N)=O)c(N)c1c2-c1cccs1` (stereo not drawn) [Compound 37, 3-Amino-7-methyl-4-thiophen-2-yl-6,7-dihydro-5H-cyclopenta[b]thieno[3,2-e]pyridine-2-carboxylic acid amide], more than 6.00. On to `NC(=O)c1sc2nc3c(c(-c4cccs4)c2c1N)CCC3CC(=O)N1CCOCC1` (stereo not drawn) [Compound 38, 3-Amino-7-(2-morpholin-4-yl-2-oxo-ethyl)-4-thiophen-2-yl-6,7-dihydro-5H-cyclopenta[b]thieno[3,2-e]pyridine-2-carboxylic acid amide], for which the pEC50 was less than 5.00. On to `NC(=O)c1sc2nc3c(c(-c4cccs4)c2c1N)CCC3CC(=O)NCC(O)c1ccccc1` (stereo not drawn) [Compound 39, 3-Amino-7-[(2-hydroxy-2-phenyl-ethylcarbamoyl)-methyl]-4-thiophen-2-yl-6,7-dihydro-5H-cyclopenta[b]thieno[3,2-e]pyridine-2-carboxylic acid amide], for which the pEC50 was less than 5.00. `COC(=O)CC1CCc2c1nc1sc(C(N)=O)c(N)c1c2-c1cccs1` (stereo not drawn) [Compound 40, 3-Amino-7-carbomethoxymethyl-4-thiophen-2-yl-6,7-dihydro-5H-cyclopenta[b]thieno[3,2-e]pyridine-2-carboxylic acid amide]: the pEC50 was less than 5.00.

Regarding `CCOC(=O)CC1CCc2c1nc1sc(C(N)=O)c(N)c1c2-c1cccs1` (stereo not drawn) [Compound 41, 3-Amino-7-carbethoxymethyl-4-thiophen-2-yl-6,7-dihydro-5H-cyclopenta[b]thieno[3,2-e]pyridine-2-carboxylic acid amide], the pEC50 was less than 5.00. As for `CNC(=O)CC1CCc2c1nc1sc(C(N)=O)c(N)c1c2-c1cccs1` (stereo not drawn) [Compound 42, 3-Amino-7-methylcarbamoylmethyl-4-thiophen-2-yl-6,7-dihydro-5H-cyclopenta[b]thieno[3,2-e]pyridine-2-carboxylic acid amide], the figure is 5.00 to 6.00; as for `Cc1ccc(CNC(=O)CC2CCc3c2nc2sc(C(N)=O)c(N)c2c3-c2cccs2)o1` (stereo not drawn) [Compound 43, 3-Amino-7-{[(5-methyl-furan-2-ylmethyl)-carbamoyl]-methyl}-4-thiophen-2-yl-6,7-dihydro-5H-cyclopenta[b]thieno[3,2-e]pyridine-2-carboxylic acid amide], less than 5.00. Regarding `COc1ccccc1CNC(=O)CC1CCc2c1nc1sc(C(N)=O)c(N)c1c2-c1cccs1` (stereo not drawn) [Compound 44, 3-Amino-7-[(2-methoxy-benzylcarbamoyl)-methyl]-4-thiophen-2-yl-6,7-dihydro-5H-cyclopenta[b]thieno[3,2-e]pyridine-2-carboxylic acid amide], the negative logarithm of the EC50 (pEC50) is less than 5.00.
